In BindingDB's records for doi:10.7270/Q2TX3CTT (Broad Institute, 2010):
Where a name gives a salt, the structure may show the parent alone.

Molecular target: Glycogen synthase kinase-3 beta (Homo sapiens, UniProt P49841)
Experiment: GSK3beta kinase inhibitor potency, dose response, biochemical, luminescence, cell-free homogeneous, retest (AID 434954)

Sequence of Glycogen synthase kinase-3 beta (P49841 whole entry): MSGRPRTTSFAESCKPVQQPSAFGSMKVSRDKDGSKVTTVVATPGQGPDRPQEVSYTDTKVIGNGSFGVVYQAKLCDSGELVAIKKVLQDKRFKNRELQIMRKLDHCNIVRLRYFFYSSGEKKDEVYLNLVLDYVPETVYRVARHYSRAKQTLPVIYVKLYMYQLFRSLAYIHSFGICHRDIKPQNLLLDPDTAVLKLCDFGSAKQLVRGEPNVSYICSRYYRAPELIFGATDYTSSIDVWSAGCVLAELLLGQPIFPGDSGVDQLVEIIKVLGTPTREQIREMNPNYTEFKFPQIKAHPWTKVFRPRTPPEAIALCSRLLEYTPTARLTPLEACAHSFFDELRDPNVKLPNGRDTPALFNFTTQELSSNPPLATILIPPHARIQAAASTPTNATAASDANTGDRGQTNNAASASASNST

| EC50 [µM] | SMILES |
| --- | --- |
| > 300 | CCN(CC)C(=O)Cn1cc(C(=O)C(=O)Nc2ccc3c(c2)OCCO3)c2ccccc21 |
| > 300 | O=C(CSc1nnc(CNC(=O)c2c(F)cccc2F)o1)NCc1ccc(F)cc1 |
| > 300 | COc1cccc(NC(=O)CN(C)C(=O)c2cc(-c3ccc(F)cc3)nc3ccccc23)c1 |
| > 300 | CC(C)N(Cc1nnc(-c2ccc(Cl)cc2)o1)C(=O)C1=COCCO1 |
| > 300 | O=C(Cn1cc[n+](CC(=O)c2ccc(Cl)cc2Cl)c1)c1ccc(Cl)cc1Cl [1,3-Bis-[2-(2,4-dichloro-phenyl)-2-oxo-ethyl]-3H-imidazol-1-ium] |
| > 300 | COc1ccc(Nc2nc3ccccc3s2)cc1 [1,3-benzothiazol-2-yl-(4-methoxyphenyl)amine] |
| > 300 | O=C(Nc1ccncc1)Nc1ccncc1 [1,3-bis(4-pyridyl)urea] |
| 13.3 | O=C(NN=CC1=CC(=O)C(=O)CC1)NN=CC1=CC(=O)C(=O)CC1 [1,3-bis[[(Z)-(3-hydroxy-4-oxocyclohexa-2,5-dien-1-ylidene)methyl]amino]urea] |
| > 300 | Cc1ccccc1C1=NC(C(F)(F)F)(C(F)(F)F)c2c(n(C)c(=O)n(C)c2=O)N1 [1,3-dimethyl-7-(2-methylphenyl)-5,5-bis(trifluoromethyl)-8H-pyrimido[4,5-d]pyrimidine-2,4-dione] |
| > 300 | CN(Cc1ccccc1)Cc1nc2c([nH]1)c(=O)n(C)c(=O)n2C [1,3-dimethyl-8-[[methyl-(phenylmethyl)amino]methyl]-7H-purine-2,6-dione] |
| 26 | O=NCc1cn(-c2ccccc2)nc1-c1ccccc1 [1,3-diphenyl-4-pyrazolecarboxaldehyde oxime] |
| > 300 | Cc1c(C(=O)O)sc2c1c(=O)n(Cc1ccccc1)c(=O)n2C [1,5-dimethyl-2,4-dioxo-3-(phenylmethyl)-6-thieno[2,3-d]pyrimidinecarboxylic acid] |
| 46.2 | Cn1nc(-c2ccccn2)nc2c(=O)n(C)c(=O)nc1-2 [1,6-dimethyl-3-(2-pyridinyl)pyrimido[5,4-e][1,2,4]triazine-5,7(1H,6H)-dione] |
| > 300 | O=C(CSc1ccc2nnc(-c3cccs3)n2n1)N1CCCC1 [1-(1-pyrrolidinyl)-2-[(3-thiophen-2-yl-[1,2,4]triazolo[4,3-b]pyridazin-6-yl)thio]ethanone] |
| > 300 | c1ccc2c(c1)OCC(CNCC1COc3ccccc3O1)O2 (stereo not drawn) [1-(2,3-dihydro-1,4-benzodioxin-3-yl)-N-(2,3-dihydro-1,4-benzodioxin-3-ylmethyl)methanamine] |
| > 300 | CCOc1ccc2c(c1)C(=O)C(=O)N2CC1COc2ccccc2O1 (stereo not drawn) [1-(2,3-dihydro-1,4-benzodioxin-3-ylmethyl)-5-ethoxy-indole-2,3-dione] |
| > 300 | O=[N+]([O-])c1ccc(N2CCCCCC2)c([N+](=O)[O-])c1 [1-(2,4-Dinitro-phenyl)-azepane] |
| > 300 | Cc1c(O)ccc(C(=O)CN2CCN(c3ccc(F)cc3)CC2)c1O [1-(2,4-dihydroxy-3-methylphenyl)-2-[4-(4-fluorophenyl)-1-piperazinyl]ethanone] |
| > 300 | Cc1ccc(NC(=S)NC2CC3CCC(C2)N3Cc2ccco2)c(C)c1 (stereo not drawn) [1-(2,4-dimethylphenyl)-3-[8-(2-furanylmethyl)-8-azabicyclo[3.2.1]octan-3-yl]thiourea] |
| > 300 | COc1ccc(N2CCN(CC(O)COc3c(OC)cccc3OC)CC2)cc1 (stereo not drawn) [1-(2,6-dimethoxyphenoxy)-3-[4-(4-methoxyphenyl)piperazin-1-yl]propan-2-ol;hydrochloride] |
| > 300 | CC(C)(C)C(=O)c1cnc(Nc2ccccc2)s1 [1-(2-anilino-1,3-thiazol-5-yl)-2,2-dimethylpropan-1-one] |
| > 300 | O=C(O)CCn1cc(C(=O)O)c(-c2ccccc2)n1 [1-(2-carboxyethyl)-3-phenyl-4-pyrazolecarboxylic acid] |
| > 300 | COc1ccccc1-c1nc(C(=O)NCC2CCCO2)cc2c1[nH]c1ccccc12 (stereo not drawn) [1-(2-methoxyphenyl)-N-(oxolan-2-ylmethyl)-9H-pyrido[3,4-b]indole-3-carboxamide] |
